Among the data in PubChem BioAssay (NCI) are GI50 and TGI values, retold here.

Values joined by “and” are separate entries in the source; they are usually repeats but may differ in a detail not shown here. Equal entries are not always repeated.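 Values below derive from 48-hour exposures of cells grown in 96-well plates, with endpoints linearly interpolated between the two concentrations bracketing the appropriate inhibition level. Abbreviation: GI50, concentration required for 50% inhibition of growth. TGI: concentration producing complete growth inhibition.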 Where only a bound is given, the exact number is not on record here.

What is called GI50 is the concentration giving 50% growth inhibition. A word on the TGI: it is the concentration at which net growth stops. A high value points to less potent growth arrest.

Among the test systems are U251 CNS; HCT-15 colon; UO-31 renal; HT29 colon; SF-268 CNS; HL-60(TB) leukemia; UACC-257 melanoma; KM12 colon; SK-MEL-2 melanoma; SF-295 CNS.
Experiment in all cases: DTP human tumour cell line panel, 48 h

For the molecule `COC(=O)Nc1ccc2ccc3c(NC(=O)OC)ccc4ccc1c2c43` (tested in a mixture with another compound), the GI50 in the test with U251 CNS was 12 µM; in the test on HCT-15 colon it was 2.63 µM; with UO-31 renal it was 5.21 µM; in the test on HT29 colon, 4.31 µM; with SF-268 CNS it was 14 µM; with HL-60(TB) leukemia it was 9.95 µM. Moreover, the GI50 in the test on UACC-257 melanoma was 21.8 µM; in the test with KM12 colon, 3.4 µM; in the test on SK-MEL-2 melanoma, 25.6 µM; in the test on SF-295 CNS, 5.25 µM. The TGI in the test with U251 CNS was greater than 50 µM; with HCT-15 colon, greater than 50 µM; in the test on UO-31 renal it was 18.3 µM; in the test with HT29 colon it was greater than 50 µM; in the test on SF-268 CNS, greater than 50 µM; in the test on HL-60(TB) leukemia, greater than 50 µM. The TGI was greater than 50 µM with UACC-257 melanoma, greater than 50 µM in the test on KM12 colon, greater than 50 µM in the test with SK-MEL-2 melanoma and 30.2 µM with SF-295 CNS.

`Cc1ccccc1C(C#N)/C(=N/NC(=O)c1cc2ccccc2cc1O)C(=O)Nc1cccc(Cl)c1` (stereo not given): the TGI in the test on U251 CNS is greater than 100 µM; in the test on HCT-15 colon it was greater than 100 µM; in the test on UO-31 renal, 8.4 µM; in the test with HT29 colon, greater than 100 µM; with SF-268 CNS it was 90.3 µM; with HL-60(TB) leukemia it was 26.8 µM. Moreover, the TGI was 76.1 µM in the test on UACC-257 melanoma, greater than 100 µM in the test with KM12 colon, 76 µM in the test with SK-MEL-2 melanoma and greater than 100 µM in the test with SF-295 CNS.

With `Clc1nc(Cl)c2ncn(C/C=C\Cn3cnc4c(Cl)nc(Cl)nc43)c2n1`, the GI50 with U251 CNS was 3.5 µM; in the test with HCT-15 colon, 1.64 µM; in the test with UO-31 renal, 3.38 µM; with HT29 colon, 1.69 µM; in the test with SF-268 CNS, 2.24 µM; in the test on HL-60(TB) leukemia, 3.64 µM. For the same molecule, the GI50 was 2.56 µM with UACC-257 melanoma, 1.71 µM in the test on KM12 colon, 1.75 µM in the test on SK-MEL-2 melanoma and 1.54 µM in the test on SF-295 CNS. For the same molecule, the TGI is 10.6 µM with U251 CNS; 3.36 µM with HCT-15 colon; 10.3 µM in the test on UO-31 renal; 3.35 µM in the test on HT29 colon; 5.71 µM with SF-268 CNS; greater than 100 µM with HL-60(TB) leukemia. Moreover, the TGI in the test with UACC-257 melanoma was found to be 12.1 µM; in the test with KM12 colon, 3.2 µM; in the test on SK-MEL-2 melanoma, 3.66 µM; with SF-295 CNS, 3.06 µM.

As to `COc1ccccc1NC(=O)CC(=O)n1nc(C)c(N=Nc2ccccc2F)c1C`, the concentration for total growth inhibition (TGI) in the test on U251 CNS was greater than 100 µM; in the test with HCT-15 colon, greater than 100 µM; with UO-31 renal it was greater than 100 µM; with HT29 colon, greater than 100 µM; with SF-268 CNS, greater than 93.3 µM; with HL-60(TB) leukemia, greater than 100 µM. Further, the total growth inhibition concentration (TGI) in the test on UACC-257 melanoma, in the test with KM12 colon, with SK-MEL-2 melanoma and in the test with SF-295 CNS was greater than 100 µM throughout.

`CCCCOC(=O)/C(CC(=O)C=C(C)C)=N\NS(=O)(=O)c1ccc(C)cc1`: the TGI in the test with U251 CNS, in the test with HCT-15 colon, in the test on UO-31 renal, in the test with HT29 colon, in the test with SF-268 CNS and in the test with HL-60(TB) leukemia was greater than 100 µM in each case. For the same molecule, the concentration for total growth inhibition (TGI) with UACC-257 melanoma, with KM12 colon, with SK-MEL-2 melanoma and in the test with SF-295 CNS was greater than 100 µM each time.

In the case of `O=C1CCC(c2nc3ccccc3o2)C(=O)N1` (stereo not given), the total growth inhibition concentration (TGI) with U251 CNS, in the test with HCT-15 colon, in the test with UO-31 renal, in the test on HT29 colon, in the test with SF-268 CNS and with HL-60(TB) leukemia was greater than 100 µM in each case. For the same molecule, the TGI with UACC-257 melanoma, with KM12 colon, with SK-MEL-2 melanoma and in the test on SF-295 CNS was greater than 100 µM in each case.

Regarding `Cc1cccc(C(C)O)n1` (stereo not given), the total growth inhibition concentration (TGI) in the test on U251 CNS, in the test on HCT-15 colon, in the test with UO-31 renal, in the test on HT29 colon, in the test with SF-268 CNS and with HL-60(TB) leukemia was greater than 100 µM in each case. Also, the TGI with UACC-257 melanoma, in the test with KM12 colon, in the test with SK-MEL-2 melanoma and in the test on SF-295 CNS was greater than 100 µM in each case.

For `S=C(Nc1ccccc1)c1ccccn1`, the GI50 was 38 µM with U251 CNS; 40.3 µM in the test with HCT-15 colon; 25.5 µM with UO-31 renal; 50.1 µM in the test on HT29 colon; 77.3 µM with SF-268 CNS; 31.3 µM with HL-60(TB) leukemia. Besides, the GI50 in the test on UACC-257 melanoma is greater than 100 µM; in the test with KM12 colon, greater than 100 µM; in the test on SK-MEL-2 melanoma it was greater than 100 µM; in the test on SF-295 CNS, 32.8 µM. The TGI in the test on U251 CNS, with HCT-15 colon, in the test on UO-31 renal, with HT29 colon, with SF-268 CNS and with HL-60(TB) leukemia was greater than 100 µM in each case. The concentration for total growth inhibition (TGI) with UACC-257 melanoma, in the test on KM12 colon, with SK-MEL-2 melanoma and in the test with SF-295 CNS was greater than 100 µM each time.

On to `CCc1ccccc1NC(=O)CCc1nc(=S)[nH][nH]1`, for which the total growth inhibition concentration (TGI) in the test on U251 CNS, in the test on HCT-15 colon, with UO-31 renal, with HT29 colon, in the test with SF-268 CNS and in the test on HL-60(TB) leukemia was greater than 100 µM each time. Besides, the total growth inhibition concentration (TGI) with UACC-257 melanoma, in the test with KM12 colon, in the test with SK-MEL-2 melanoma and in the test with SF-295 CNS was greater than 100 µM throughout.

Consider `Nc1cc(N)c2nc(-c3ccccc3)c(Nc3ccc(F)cc3)nc2c1`, for which the GI50 with U251 CNS was 5.65 µM; with HCT-15 colon it was 12.7 µM; in the test on UO-31 renal, 16.9 µM; in the test on HT29 colon, 18.6 µM; in the test on SF-268 CNS it was 13.2 µM; in the test on HL-60(TB) leukemia, 11.3 µM. Moreover, the GI50 in the test on UACC-257 melanoma is 15.3 µM; with KM12 colon, 12 µM; with SK-MEL-2 melanoma, 29.8 µM; in the test on SF-295 CNS it was 14.4 µM. The TGI with U251 CNS was 20 µM; in the test on HCT-15 colon, 38.1 µM; in the test with UO-31 renal, 61.4 µM; in the test with HT29 colon, 35.3 µM; in the test on SF-268 CNS, 41 µM; in the test on HL-60(TB) leukemia, greater than 100 µM. Further, the TGI in the test with UACC-257 melanoma is 29 µM; in the test on KM12 colon, 29.5 µM; with SK-MEL-2 melanoma, greater than 100 µM; in the test with SF-295 CNS it was 32.4 µM.

Take `CN(C)c1cccc2[nH]c(-c3[nH]ncc3Nc3ccnc(N)n3)nc12`: the GI50 was less than 0.0119 µM in the test with U251 CNS; 0.0144 µM with HCT-15 colon; less than 0.0142 µM with UO-31 renal; 0.0286 µM in the test on HT29 colon; 0.0179 µM in the test with SF-268 CNS; less than 0.0141 µM with HL-60(TB) leukemia. Besides, the GI50 was 0.0318 µM with UACC-257 melanoma, 0.024 µM in the test with KM12 colon, 0.021 µM with SK-MEL-2 melanoma and 0.0172 µM with SF-295 CNS. Besides, the TGI in the test with U251 CNS was found to be 1.33 µM; with HCT-15 colon, 1.03 µM; in the test with UO-31 renal, 0.276 µM; with HT29 colon, 0.638 µM; in the test on SF-268 CNS it was 0.104 µM; with HL-60(TB) leukemia, 0.0666 µM. Moreover, the TGI was 0.324 µM with UACC-257 melanoma, 0.283 µM in the test with KM12 colon, 0.0692 µM in the test with SK-MEL-2 melanoma and 0.0628 µM in the test on SF-295 CNS.

Turning to `Cn1cnc2c(F)c(Nc3ccc(Br)cc3Cl)c(C(=O)NOCCO)cc21`, the GI50 is > 8.16 µM and 30.1 µM in the test with U251 CNS; > 10 µM and 40.5 µM in the test on HCT-15 colon; 1.45 µM and 3.38 µM in the test on UO-31 renal; 0.0278 µM and 0.0265 µM in the test on HT29 colon; > 10 µM and 60.5 µM with SF-268 CNS; 0.0218 µM with HL-60(TB) leukemia. Besides, the concentration for 50% growth inhibition (GI50) in the test with UACC-257 melanoma is 0.0212 µM and < 0.0177 µM; in the test with KM12 colon, 0.685 µM and 0.847 µM; in the test on SK-MEL-2 melanoma, 0.0262 µM and < 0.0122 µM; in the test with SF-295 CNS it was > 10 µM and 67.2 µM. The TGI in the test with U251 CNS is greater than 100 µM; in the test on HCT-15 colon, greater than 100 µM; in the test with UO-31 renal it was greater than 66 µM; in the test on HT29 colon it was greater than 100 µM; in the test on SF-268 CNS, greater than 100 µM; in the test on HL-60(TB) leukemia it was > 10 µM and 5.35 µM. In addition, the TGI in the test with UACC-257 melanoma is 0.207 µM and 0.0755 µM; in the test with KM12 colon, greater than 100 µM; with SK-MEL-2 melanoma, 0.78 µM and 0.565 µM; with SF-295 CNS it was greater than 100 µM.

On to `Nc1nc(-n2cccn2)nc(-n2cccn2)c1Br`, for which the GI50 in the test on U251 CNS, in the test with HCT-15 colon, in the test with UO-31 renal, in the test with HT29 colon, in the test with SF-268 CNS and in the test on HL-60(TB) leukemia was greater than 100 µM throughout. The GI50 in the test with UACC-257 melanoma, with KM12 colon, in the test on SK-MEL-2 melanoma and in the test on SF-295 CNS was greater than 100 µM in each case. The TGI with U251 CNS, in the test on HCT-15 colon, in the test on UO-31 renal, in the test with HT29 colon, with SF-268 CNS and in the test with HL-60(TB) leukemia was greater than 100 µM throughout. Moreover, the TGI in the test on UACC-257 melanoma, with KM12 colon, in the test with SK-MEL-2 melanoma and with SF-295 CNS was greater than 100 µM in each case.

For the molecule `N#Cc1nc(-c2cccc(Br)c2)cc(-c2ccc(Nc3nc(N4CCCCC4)nc(N4CCCCC4)n3)cc2)c1N`, the GI50 with U251 CNS is 1.72 µM; in the test with HCT-15 colon, 1.72 µM; in the test with UO-31 renal, 1.68 µM; with HT29 colon, 1.22 µM; with SF-268 CNS, 3.27 µM; in the test on HL-60(TB) leukemia it was 2.27 µM. The GI50 is 2.98 µM with UACC-257 melanoma, 1.91 µM in the test with KM12 colon, 2.09 µM with SK-MEL-2 melanoma and 2.72 µM with SF-295 CNS. Moreover, the total growth inhibition concentration (TGI) turned out to be 3.38 µM in the test on U251 CNS; 5.53 µM in the test with HCT-15 colon; 5.47 µM with UO-31 renal; 4.09 µM with HT29 colon; 21.5 µM in the test on SF-268 CNS; 6.47 µM in the test on HL-60(TB) leukemia. The TGI is 29.8 µM in the test on UACC-257 melanoma, 3.91 µM with KM12 colon, 4.61 µM in the test with SK-MEL-2 melanoma and 8.81 µM in the test with SF-295 CNS.
